A short description of data set [1]: Nanoparticle size measurement with Zetasizer Nano ZS. The data set is classed as physicochemical. The note with it: diluted in ultrapure water, room temperature, triplicate mean +/- standard deviation. The protocol: Recombinant amphiphilic peptides and hapten peptides were produced and provided by Anygen in Gwangju, Korea. In order to prepare nanoparticles (particulate soluble hapten) using amphiphilic peptides, amphiphilic peptides (peptides of SEQ ID NOs: 1 to 4, respectively) were dissolved in distilled water at a concentration of 4 mg/mL. Then, hapten peptides (peptides of SEQ ID NOs: 5 to 11, respectively) were dissolved in distilled water at a concentration of 0.5 mg/mL. Afterwards, a fixed amount of hapten (50 μg) was mixed with two different amounts of amphiphilic peptide at a ratio of 3:1 and 1:3 (w/w) and incubated for 30 minutes at room temperature (25° C.).
In order to characterize the sizes of amphiphilic peptides and nanoparticles, the diameters of micelles and nanoparticles formed by amphiphilic peptides (carriers) were measured with a Zetasizer Nano ZS system (Malvern Instruments, Malvern, UK). After digestion, the micelle stock solution was added to the cuvette. After 30-minute incubation, nanoparticles were diluted to a final volume of 1 mL. The average size was then analyzed with Dispersion Technology software 4.3. Nanoparticles were diluted using ultrapure water (refractive index 1.33, viscosity 0.89) and used for analysis at room temperature. Observations were presented as triplicate means +/−standard deviation.

Data set [2] deals with BALB/c mice. Put plainly: ELISA of hapten peptide-specific IgG/IgM in blood of immunized mice. The class given is in vivo, mouse. To be noted: FIG. 6. The protocol: (§1) Female BALB/C mice were purchased from Nara Biotech, Seoul, Korea, were 6 weeks old, and were bred under pathogen-free conditions. This study was conducted in accordance with the strict guidelines for the care and use of laboratory animals of the National Institutes of Health. The protocol was approved by the Animal Care Committee of Hanyang University Animal Hospital. For immunization, nanoparticles were emulsified with aluminum hydroxide (20 mg/100 μL, Sigma-Aldrich, St Louis, MO, USA). The mice were injected with 150 μg carrier dissolved in 150 μL phosphate buffered saline (PBS). The mice were injected with 50 μg hapten dissolved in 150 μL PBS. The mice were injected with 3:1 (w/w) nanoparticles (150 μg carrier and 50 μg hapten) combined with 150 μL PBS and 40 mg aluminum hydroxide. The mice were injected with 1:3 (w/w) nanoparticles (16.67 μg carrier and 50 μg hapten) combined with 150 μL PBS and 40 mg aluminum hydroxide. All groups were injected by intraperitoneal route and again on day 21. Blood was collected through the jugular vein twice a week and centrifuged at 2,000 g for 20 minutes. Serum was collected from centrifuged blood and frozen at −20° C. until being analyzed by ELSIA. The mice were sacrificed on day 35. Whole blood was collected and centrifuged at 2,000 g for 20 minutes. Serum was collected from centrifuged blood and frozen at −20° C. until being analyzed by dot blot. […]
(An ELISA detects its analyte on a solid surface through an enzyme-linked reagent.)

Data set [3] deals with BALB/c mice. Put plainly: Antibody detection by dot blot in serum of immunized mice. To be noted: serum of day 35, serially diluted recombinant protein, FIG. 10. The class given is in vivo, mouse. As to the method:
as §1, with “The mice were injected with 1:3 (w/w) nanoparticles (16.67 μg carrier and 50 μg hapten) combined with 150 μL PBS and 40 mg aluminum hydroxide. All groups were injected by intraperitoneal route and again on day 21. Blood was collected through the jugular vein twice a week and centrifuged at 2,000 g for 20 minutes.” left out, “The mice were sacrificed on day 35. Whole blood was collected and centrifuged at 2,000 g for 20 minutes.” left out
For determination of nanoparticle (or hapten peptide)-specific antibodies, serial dilutions of the recombinant protein were seeded on PVDF membranes at a concentration of 1.2 μg/μL to 12 ng/μL. […] Afterwards, the enhanced chemiluminescence solution (ECL) was treated with a membrane and directly analyzed with chemiscope 3400 (CLINX, China). […]

Data set [4] relates to CD19 positive B cells reacting with DDOST protein labeled with Alexa 647. The data set is described as follows: Live cell flow cytometry of hapten-specific B cells in splenocytes of immunized mice. The data set is classed as in vivo, mouse. To be noted: FIG. 11. The protocol: as §1, with “All groups were injected by intraperitoneal route and again on day 21. Blood was collected through the jugular vein twice a week and centrifuged at 2,000 g for 20 minutes.” left out, “The mice were sacrificed on day 35. Whole blood was collected and centrifuged at 2,000 g for 20 minutes.” left out
(§2) In order to identify nanoparticle (or hapten peptide)-specific lymphocyte populations, live cell flow cytometry was performed. […] After rinsing, the cells were filtered through a 40 μm cell strainer and counted. […]
A general note: A flow cytometer gives signals particle by particle.

In data set [5] the test system is hapten and CD8 specific T cells. The data set is described as follows: Live cell flow cytometry of hapten-specific cytotoxic T cells in splenocytes of immunized mice. The data set is classed as in vivo, mouse. The protocol: as §1, with “All groups were injected by intraperitoneal route and again on day 21. Blood was collected through the jugular vein twice a week and centrifuged at 2,000 g for 20 minutes.” left out, “The mice were sacrificed on day 35. Whole blood was collected and centrifuged at 2,000 g for 20 minutes.” left out
as §2

Another data set relates to mice. Put plainly: Comparison of antibodies induced by nanoparticles and by the KLH conjugate method (FIG. 7). The data set is classed as in vivo, mouse. To be noted: compared with keyhole limpet hemocyanin method. As to the method: In addition, when the antibodies identified by Western blot were pre-reacted with the incomplete water-soluble antigen (lower panel of FIG. 7), all bands disappeared, confirming that all antibodies that were produced were specifically generated against the incomplete water-soluble antigen. After completion of the experiment, the spleens of the used animals were removed, splenocytes were isolated, and the analysis of B cells and T cells was performed through flow cytometry.

For the substance “RRRVVVVVV (micelle self-assembly) [Carrier, amphiphilic peptide of three arginines and six valines forming micelles by self-assembly]”, the Z-ave in data set [1] is 193.8 ± 97.3 nm·days. The “expression of hapten peptide-specific IgG and IgM antibodies in mouse blood” value in the data set on BALB/c mice [2] is recorded as “no significant increase”. The “hapten peptide-specific IgG dots (dot blot)” value in the data set with BALB/c mice [3] is listed as “no concentrated dots”. For the same substance, the “change in ratio of B cells responding to the target protein” value in data set [4] is reported as “no significant change”. In addition, in data set [4] (splenocytes day 35, Alexa 647 positive channel), the “hapten-specific B cells, lower gating group” value was found to be 15.1%. In data set [5] (FIG. 12), the “change in proportion of CD8 T cells reacting to the target protein” value is listed as “did not show significant changes”. Further, the “hapten and CD8 specific T cells, lower gating group” value in data set [5] (splenocytes day 35, FIG. 12) came out at 0.78%.

Take keyhole limpet hemocyanin: the “antibody production (FIG. 7, top panel)” value in the data set with mice is “antibodies were produced”.
